In article PMC8424217 (The Journal of Biological Chemistry, 2021):
Peptide text beside a SMILES is read from it. * marks the point of attachment. Palmitoyl = CCCCCCCCCCCCCCCC(=O)*

Tests used:
Type in all cases: cell-based
[1] = tested on: CHO-K1 cells; test: IP1 production, IP-One terbium immunoassay, untransfected CHO-K1 cells; conditions: CHO-K1, 40 min incubation
Experimental: This assay, performed with the IP-One terbium immunoassay kits from Cisbio, was used according to the manufacturer recommendation and as previously described ([43]). Briefly, CHO-hUT cells were grown in 10-cm dishes for 24 h. The cells were then starved without serum. The next day, cells were washed once with PBS and collected in PBS containing 20 mM EDTA. For the assay, 80,000 cells per well (96-well plate) were used. […] IP1-d2 and anti-IP1-cryptate were added for an additional 2 h at room temperature. Plates were read on a Flexstation 3 microplate reader.
[Trp1, Leu2]hUT-Pep3. IP1 production was evaluated using the IP-One terbium immunoassay
kitsinCHO-K1 cells.Each histogram represents the mean ± SEM of atleast threeindependent
experiments performed in triplicate.
(also on this page, place not known: (% Maximal Response) FigureS3.IP1productioninCHO-K1cellsfollowingtreatmentbyhUII,hUT-Pep2or [Trp1,Leu2]hUT-Pep3.IP1productionwasevaluatedusingtheIP-Oneterbiumimmunoassay kitsinCHO-K1cells.Eachhistogramrepresentsthemean±SEMofatleastthreeindependent experimentsperformedintriplicate.)

[2] = tested on: HEK 293 cells; test: Cell proliferation, MTT assay, HEK 293 cells without receptor; conditions: 10^−6 M
Description: Each bar corresponds to the mean ± SEM obtained from three independent experiments conducted in triplicate.

[3] = target: T1, hUT (Homo sapiens, UniProt Q9UKP6); test: G12 activation, BRET biosensor, HEK 293-hUT cells; set-up: expressed in transfected cells
T1 sequence (Q9UKP6 1-389): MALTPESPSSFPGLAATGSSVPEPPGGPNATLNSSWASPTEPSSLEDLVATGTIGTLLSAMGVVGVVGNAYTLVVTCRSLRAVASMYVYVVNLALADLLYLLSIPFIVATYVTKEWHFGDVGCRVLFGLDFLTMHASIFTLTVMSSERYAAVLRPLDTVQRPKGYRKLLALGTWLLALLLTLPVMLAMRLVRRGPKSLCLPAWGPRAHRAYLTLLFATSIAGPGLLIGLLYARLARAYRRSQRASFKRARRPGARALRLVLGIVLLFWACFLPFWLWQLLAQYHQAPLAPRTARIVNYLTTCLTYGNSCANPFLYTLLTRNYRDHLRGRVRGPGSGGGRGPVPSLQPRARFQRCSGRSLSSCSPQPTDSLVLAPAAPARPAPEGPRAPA
Experimental: (§1) Figure 6 Signaling signature of hUT-pepducins following hUT receptor activation. […] Each curve represents mean ± SEM of at least three independent concentration-response experiments performed in triplicate.
(§2) HEK 293-hUT cells were grown in DMEM culture media supplemented with 10% foetal bovine serum, HEPES, sodium pyruvate, and G418 (200 μg mL^−1). Passages were performed when cells reached 80% of confluency. Cells were initially plated in 96-well plates at a density of 10,000 cells/well. […] Then, to evaluate Gq and G12 activation, 10 μl of a 1/20 dilution (diluted before use) of coelenterazine 400A (stock at 1 mM in ethanol) in Kreb's buffer and 10 μl of the 10× appropriate concentration of peptide were added, and the luminescence was evaluated with an Infinite M1000 PRO. […] Readings were performed after 5 min using an Infinite M1000 PRO. […] BRET ratio was determined by calculating the ratio of the light emitted by GFP10 over the light emitted by the RlucII.

[4] = target: T1, hUT; test: β-arrestin 2 conformational change, BRET biosensor, HEK 293-hUT cells; set-up: expressed in transfected cells; conditions: 15 min at RT
Experimental: as §1
HEK 293-hUT cells were grown in DMEM culture media supplemented with 10% foetal bovine serum, HEPES, sodium pyruvate, and G418 (200 μg mL^−1). Passages were performed when cells reached 80% of confluency. Cells were initially plated in 96-well plates at a density of 10,000 cells/well. The following day, the medium is replaced with DMEM culture media supplemented with 2.5% foetal bovine serum (FBS), and 12 h later, cells were transiently transfected with 25 ng/well of a Gq-polycistronic, 25 ng/well of a G12-polycistronic BRET sensor, 25 ng/well of a G13-polycistronic BRET sensor, 2.5 ng/well pIRESB RLucII-ERK-NLS-GFP BRET sensor, 2.5 ng β-arrestin 1-polycistronic BRET sensor, or 2.5 ng β-arrestin 2-polycistronic BRET sensor using Lipofectamine2000 at a ratio of 3:1 (Lipofectamine/plasmid DNA) in serum-free Opti-MEM ([44], [81]). Sixteen hours posttransfection, medium was replaced with DMEM supplemented with 10% FBS, HEPES, sodium pyruvate and G418 (200 μg mL^−1) and cell growth was resumed for another 16 h. Cells were washed with 150 μl PBS solution supplemented with 0.1% of glucose and then incubated with 80 μl of this solution for 2 h. Then, to evaluate Gq and G12 activation, 10 μl of a 1/20 dilution (diluted before use) of coelenterazine 400A (stock at 1 mM in ethanol) in Kreb's buffer and 10 μl of the 10× appropriate concentration of peptide were added, and the luminescence was evaluated with an Infinite M1000 PRO. […] Readings were performed after 5 min using an Infinite M1000 PRO. Filters were set at 410 nm and 515 nm for detecting the Renilla luciferase II (RlucII, donor) and green fluorescent protein 10 (GFP10, acceptor) light emission, respectively. BRET ratio was determined by calculating the ratio of the light emitted by GFP10 over the light emitted by the RlucII.

[5] = target: T1, hUT; test: Antagonism of hUII- or URP-mediated G12 activation, BRET, HEK 293-hUT cells; set-up: expressed in transfected cells; conditions: pepducin 10^−5 M for 15 min, then hUII or URP, at least three experiments in triplicate
Experimental: Figure 10 Effect of hUT-pepducins on hUT-mediated G12activation. […] Each curve represents mean ± SEM of at least three independent concentration–response experiments performed in triplicate.
as §2

Row | Compound | IP1 production in untransfected CHO-K1 cells [1] | HEK 293 cell proliferation in absence of receptor [2] | Emax at 1 µM ([3]; read-out: G12 activation, maximum efficacy at 10^−6 M) [%] | EC50 ([4]; mean ± SEM, n = 3–5, read-out: β-arrestin 2 pEC50 (converted)) [µM] | Emax ([4]; percentage of the activation induced by hUII (10^−6 M), mean ± SEM, n = 3–5) [%] | hUII- and URP-mediated G12 activation after pepducin pretreatment [5] | Emax at 1 µM ([3]; read-out: G12 activation Emax) [%] | Emax at 1 µM ([4]; at 10^−6 M, percentage of the activation induced by hUII (10^−6 M), read-out: β-arrestin 2, maximum efficacy at 10^−6 M) [%]
1 | CCCCCCCCCCCCCCCC(=O)N[C@@H](Cc1c[nH]c2ccccc12)C(=O)N[C@@H](CC(C)C)C(=O)N[C@@H](CO)C(=O)N[C@@H](CCC(N)=O)C(=O)N[C@@H](CCCNC(=N)N)C(=O)N[C@@H](C)C(=O)N[C@@H](CO)C(=O)N[C@@H](Cc1ccccc1)C(=O)N[C@@H](CCCCN)C(=O)N[C@@H](CCCNC(=N)N)C(=O)N[C@@H](C)C(=O)N[C@@H](CCCNC(=N)N)C(=O)N[C@@H](CCCNC(=N)N)C(N)=O [[Trp^1, Leu^2]hUT-Pep3] (Palmitoyl-WLSQRASFKRARR-NH2) | not untransfected CHO-K1 cells | completely abrogated | 5 | 0.0182 | 19 ± 3 | completely abolished hUII- and URP-associated G12 stimulation | – | –
2 | CC(C)[C@H](NC(=O)[C@@H]1CSSC[C@H](NC(=O)[C@H](CC(=O)O)NC(=O)[C@@H]2CCCN2C(=O)[C@@H](NC(=O)[C@@H](N)CCC(=O)O)[C@@H](C)O)C(=O)N[C@@H](Cc2ccccc2)C(=O)N[C@@H](Cc2c[nH]c3ccccc23)C(=O)N[C@@H](CCCCN)C(=O)N[C@@H](Cc2ccc(O)cc2)C(=O)N1)C(=O)O [hUII, urotensin II, reference compound] | – | completely abrogated | – | – | – | – | 98 ± 3 | –
3 | CCCCCCCCCCCCCCCC(=O)N[C@@H](CCCNC(=N)N)C(=O)N1CCC[C@H]1C(=O)N[C@@H](CC(C)C)C(=O)N[C@@H](CC(=O)O)C(=O)N[C@H](C(=O)N[C@H](C(=O)N[C@@H](CCC(N)=O)C(=O)N[C@@H](CCCNC(=N)N)C(=O)N1CCC[C@H]1C(=O)N[C@@H](CCCCN)C(=O)NCC(=O)N[C@@H](Cc1ccc(O)cc1)C(N)=O)C(C)C)[C@@H](C)O [hUT-Pep2] (Palmitoyl-RPLDTVQRPKGY-NH2) | not untransfected CHO-K1 cells | – | – | – | – | completely abolished hUII- and URP-associated G12 stimulation | – | ~15
